Measurements from BindingDB's records for doi:10.1016/0014-2999(93)90722-t (Sanofi Recherche, 1993).
Several values for one entry are separate records, joined by “and”; a condition that tells them apart may be missing. Equal entries are not always repeated. Where a SMILES comes first, the peptide text is derived from it. [ ]: non-standard residue; d: D form. sY = N[C@@H](Cc1ccc(OS(=O)(=O)O)cc1)C(=O)O

Experiments:
[1] = target: T1, Gastrin/cholecystokinin type B receptor (Rattus norvegicus, UniProt P30553)
T1 sequence (P30553 whole entry): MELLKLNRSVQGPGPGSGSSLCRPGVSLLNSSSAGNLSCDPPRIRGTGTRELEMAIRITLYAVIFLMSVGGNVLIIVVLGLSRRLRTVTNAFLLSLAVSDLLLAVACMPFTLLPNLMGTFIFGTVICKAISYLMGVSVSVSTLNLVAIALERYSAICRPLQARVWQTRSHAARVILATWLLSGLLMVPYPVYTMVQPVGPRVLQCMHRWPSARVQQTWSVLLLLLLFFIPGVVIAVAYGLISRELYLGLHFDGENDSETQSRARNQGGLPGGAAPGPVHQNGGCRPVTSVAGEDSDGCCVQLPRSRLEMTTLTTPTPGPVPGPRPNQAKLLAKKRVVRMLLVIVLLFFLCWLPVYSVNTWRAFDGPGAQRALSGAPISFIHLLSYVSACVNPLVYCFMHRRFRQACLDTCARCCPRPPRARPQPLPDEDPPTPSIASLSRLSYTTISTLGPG

SMILES | Ki | Ki [1] [nM]
CC[C@H](C)[C@H](NC(=O)[C@H](CCCNC(=N)N)NC(=O)[C@H](Cc1c[nH]cn1)NC(=O)[C@H](CO)NC(=O)[C@@H]1CCCN1C(=O)[C@H](CC(=O)O)NC(=O)[C@H](CC(C)C)NC(=O)[C@H](CC(N)=O)NC(=O)[C@H](CCC(N)=O)NC(=O)[C@H](CC(C)C)NC(=O)[C@H](CC(N)=O)NC(=O)[C@H](CCCCN)NC(=O)[C@@H](NC(=O)[C@@H](NC(=O)[C@H](CO)NC(=O)[C@H](CCSC)NC(=O)[C@H](CCCNC(=N)N)NC(=O)CNC(=O)[C@H](CO)NC(=O)[C@@H]1CCCN1C(=O)[C@H](C)NC(=O)[C@@H](N)CCCCN)[C@@H](C)CC)C(C)C)C(=O)N[C@@H](CO)C(=O)N[C@@H](CC(=O)O)C(=O)N[C@@H](CCCNC(=N)N)C(=O)N[C@@H](CC(=O)O)C(=O)N[C@@H](Cc1ccc(OS(=O)(=O)O)cc1)C(=O)N[C@@H](CCSC)C(=O)NCC(=O)N[C@@H](Cc1c[nH]c2ccccc12)C(=O)N[C@@H](CCSC)C(=O)N[C@@H](CC(=O)O)C(=O)N[C@@H](Cc1ccccc1)C(N)=O [CHOLECYSTOKININ] (H-KAPSGRMSIVKNLQNLDPSHRISDRD[sY]MGWMDF-NH2) | 0.62 nM | 
CN1C(=O)[C@@H](NC(=O)c2cc3ccccc3[nH]2)N=C(c2ccccc2)c2ccccc21 [1H-Indole-2-carboxylic acid (1-methyl-2-oxo-5-phenyl-2,3-dihydro-1H-benzo[e][1,4]diazepin-3-yl)-amide: 0.1C4H10O. 0.15CH2Cl2] | 275 nM and 195 nM | 
CSCC[C@H](NC(=O)[C@H](CC(C)C)NC(=O)[C@H](Cc1cnc[nH]1)NC(=O)CNC(=O)[C@@H](NC(=O)[C@H](C)NC(=O)[C@H](Cc1c[nH]c2ccccc12)NC(=O)[C@H](Cc1cnc[nH]1)NC(=O)[C@H](CC(N)=O)NC(=O)CN)C(C)C)C(N)=O [NSC_5486814] | 24 nM | 
O=C(O)Cn1c(C(=O)Nc2nc(-c3ccccc3Cl)cs2)cc2ccccc21 [CAS_122077] | 489 nM and 2880 nM | 0.58
